Assay results published in PubChem BioAssay AID330 (DTP/NCI, 2004).
Where “and” joins values, the source holds several entries; their conditions need not be identical. Equal entries are not always repeated. Inconclusive results and toxic doses are left out.

Test system: P388 leukemia ip, CD2F1 mice, survival T/C
Test: NCI In Vivo Anticancer Drug Screen. Data for tumor model P388 Leukemia (intraperitoneal) in CD2F1 (CDF1) mice
Conditions: endpoint: median survival time, higher = longer survival
Method in brief: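 Mice carrying the transplanted tumor received test compound or vehicle. Survival was recorded in each group, and the value is the treated-group measurement divided by that of the vehicle-treated control group.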

[1] = dose: 50.0 mg/kg/injection, schedule: Q01DX009 (ip), vehicle: saline with Tween-80
[2] = dose: 100.0 mg/kg/injection, schedule: Q01DX009 (ip), vehicle: saline with Tween-80
[3] = dose: 200.0 mg/kg/injection, schedule: Q01DX009 (ip), vehicle: saline with Tween-80
[4] = dose: 100.0 mg/kg/injection, schedule: Q01DX001 (ip), vehicle: saline with Tween-80
[5] = dose: 200.0 mg/kg/injection, schedule: Q01DX001 (ip), vehicle: saline with Tween-80
[6] = dose: 400.0 mg/kg/injection, schedule: Q01DX001 (ip), vehicle: saline with Tween-80
[7] = dose: 100.0 mg/kg/injection, schedule: Q01DX001 (ip), vehicle: Klucel (hydroxypropylcellulose) (HPC)
[8] = dose: 200.0 mg/kg/injection, schedule: Q01DX001 (ip), vehicle: Klucel (hydroxypropylcellulose) (HPC)
[9] = dose: 400.0 mg/kg/injection, schedule: Q01DX001 (ip), vehicle: Klucel (hydroxypropylcellulose) (HPC)
[10] = dose: 100.0 mg/kg/injection, schedule: Q01DX009 (ip), vehicle: Klucel (hydroxypropylcellulose) (HPC)
[11] = dose: 50.0 mg/kg/injection, schedule: Q01DX005 (ip), vehicle: saline with Tween-80
[12] = dose: 100.0 mg/kg/injection, schedule: Q01DX005 (ip), vehicle: saline with Tween-80
[13] = dose: 200.0 mg/kg/injection, schedule: Q01DX005 (ip), vehicle: saline with Tween-80

N#Cc1ccc(C#N)cc1
T/C [1]: 90 % of control | T/C (dose: 50.0 mg/kg/injection, schedule: Q04DX003 (ip), vehicle: saline with Tween-80): 91 % of control | T/C [2]: 100 % of control | T/C (dose: 100.0 mg/kg/injection, schedule: Q04DX003 (ip), vehicle: saline with Tween-80): 91 % of control | T/C [3]: 100 % of control | T/C (dose: 200.0 mg/kg/injection, schedule: Q04DX003 (ip), vehicle: saline with Tween-80): 87 % of control

CS(=O)(=O)NC(=O)NC(=S)c1ccco1
T/C [4]: 105 % of control | T/C [5]: 102 % of control | T/C [6]: 97 % of control

Cc1ccc(S(=O)(=O)N/N=C/c2c(Cl)n(C(=O)c3ccccc3F)c3ccccc23)cc1
T/C (dose: 50.0 mg/kg/injection, schedule: Q01DX001 (ip), vehicle: Klucel (hydroxypropylcellulose) (HPC)): 93 % of control | T/C [7]: 95 % of control | T/C [8]: 90 % of control | T/C [9]: 86 % of control

CC(C)(Oc1ccc(-c2cccc3ccccc23)cc1)C(=O)O
T/C (dose: 6.25 mg/kg/injection, schedule: Q01DX009 (ip), vehicle: Klucel (hydroxypropylcellulose) (HPC)): 97 % of control | T/C (dose: 12.5 mg/kg/injection, schedule: Q01DX009 (ip), vehicle: Klucel (hydroxypropylcellulose) (HPC)): 95 % of control | T/C (dose: 25.0 mg/kg/injection, schedule: Q01DX009 (ip), vehicle: Klucel (hydroxypropylcellulose) (HPC)): 101 % of control | T/C [10]: 111 % of control | T/C (dose: 200.0 mg/kg/injection, schedule: Q01DX009 (ip), vehicle: Klucel (hydroxypropylcellulose) (HPC)): 119 % of control

NC1[N-]C(C2CCCC[N-]2)CC2CCCCC21.NC1[N-]C(C2CCCC[N-]2)CC2CCCCC21.O=[N+]([O-])O.[Cu+2] (stereo not given)
T/C (dose: 6.25 mg/kg/injection, schedule: Q04DX002 (ip), vehicle: suspension in saline): 108 % of control | T/C (dose: 12.5 mg/kg/injection, schedule: Q04DX002 (ip), vehicle: suspension in saline): 109 % of control

Nc1nc(=S)c2ncn(C3OC(COC(=O)c4ccccc4)C(OC(=O)c4ccccc4)C3OC(=O)c3ccccc3)c2[nH]1 (stereo not given)
T/C (dose: 4.4 mg/kg/injection, schedule: Q01DX009 (ip), vehicle: saline with Tween-80): 109 % of control | T/C (dose: 6.6 mg/kg/injection, schedule: Q01DX009 (ip), vehicle: saline with Tween-80): 113 % of control | T/C (dose: 10.0 mg/kg/injection, schedule: Q01DX009 (ip), vehicle: saline with Tween-80): 122 % of control | T/C (dose: 44.0 mg/kg/injection, schedule: Q04DX003 (ip), vehicle: saline with Tween-80): 108 % of control | T/C [1]: 170 % of control | T/C (dose: 66.0 mg/kg/injection, schedule: Q04DX003 (ip), vehicle: saline with Tween-80): 116 % of control | T/C [2]: 90 % of control

Brc1ccc(C2=NOP(c3ccccc3)(c3ccccc3)(c3ccccc3)C2)cc1
T/C (dose: 50.0 mg/kg/injection, schedule: Q01DX009 (ip), vehicle: Klucel (hydroxypropylcellulose) (HPC)): 99 % of control | T/C [10]: 96 % of control

CC(C)c1ccc(/C=C/c2ccc(N(C)C)cc2)cc1
T/C (dose: 50.0 mg/kg/injection, schedule: Q01DX009 (sc), vehicle: olive oil, sesame oil, peanut oil): 100 % of control | T/C (dose: 100.0 mg/kg/injection, schedule: Q01DX009 (sc), vehicle: olive oil, sesame oil, peanut oil): 100 % of control | T/C (dose: 200.0 mg/kg/injection, schedule: Q01DX009 (sc), vehicle: olive oil, sesame oil, peanut oil): 97 % of control

CS(=O)(=O)OCCCCCCCCCCCCCC1C=CCC1 (stereo not given)
T/C (dose: 100.0 mg/kg/injection, schedule: Q04DX003 (ip), vehicle: saline): 99 % of control | T/C (dose: 200.0 mg/kg/injection, schedule: Q04DX003 (ip), vehicle: saline): 103 % of control | T/C (dose: 400.0 mg/kg/injection, schedule: Q04DX003 (ip), vehicle: saline): 99 % of control

C=CCNC(=O)/C(C)=C(/C)c1ccccc1
T/C [7]: 100 % of control | T/C [8]: 104 % of control | T/C [9]: 99 % of control

O=S(=O)(O)CCCNC(CO)(CO)CO
T/C (dose: 60.0 mg/kg/injection, schedule: Q01DX005 (ip), vehicle: saline): 106 % of control | T/C (dose: 120.0 mg/kg/injection, schedule: Q01DX005 (ip), vehicle: saline): 107 % of control | T/C (dose: 240.0 mg/kg/injection, schedule: Q01DX005 (ip), vehicle: saline): 107 % of control

COCCCNC(=S)N/N=C/c1cccc(OC)c1O
T/C [1]: 101 % of control | T/C [2]: 111 % of control | T/C [3]: 88 % of control

COc1ccc(OC)c(NC(=O)Oc2ccc(C#N)cc2)c1
T/C (dose: 60.0 mg/kg/injection, schedule: Q01DX005 (ip), vehicle: saline with Tween-80): 119 % of control | T/C (dose: 120.0 mg/kg/injection, schedule: Q01DX005 (ip), vehicle: saline with Tween-80): 107 % of control | T/C (dose: 240.0 mg/kg/injection, schedule: Q01DX005 (ip), vehicle: saline with Tween-80): 111 % of control

C[C@@H](O)[C@@H]1NC(=O)[C@H]([C@@H](C)O)NC1=O
T/C (dose: 50.0 mg/kg/injection, schedule: Q01DX005 (ip), vehicle: saline): 99 % of control | T/C (dose: 100.0 mg/kg/injection, schedule: Q01DX005 (ip), vehicle: saline): 99 % of control | T/C (dose: 200.0 mg/kg/injection, schedule: Q01DX005 (ip), vehicle: saline): 99 % of control

COC(=O)C1CC2C(=O)N(C)C(Br)C(Br)C12 (stereo not given)
T/C (dose: 100.0 mg/kg/injection, schedule: Q04DX002 (ip), vehicle: saline): 101 % of control | T/C (dose: 200.0 mg/kg/injection, schedule: Q04DX002 (ip), vehicle: saline): 95 % of control

CC[n+]1c(/C=C/c2ccc(N(CCC(=O)O)CCC(=O)O)cc2)ccc2ccccc21
T/C (dose: 12.5 mg/kg/injection, schedule: Q04DX002 (ip), vehicle: saline with Tween-80): 100 % of control | T/C (dose: 25.0 mg/kg/injection, schedule: Q04DX002 (ip), vehicle: saline with Tween-80): 106 % of control | T/C (dose: 50.0 mg/kg/injection, schedule: Q04DX002 (ip), vehicle: saline with Tween-80): 106 % of control

CC1(C)OCC(C2OC(C)(C)OC2C(O)c2ccco2)O1 (stereo not given)
T/C (dose: 12.5 mg/kg/injection, schedule: Q01DX009 (ip), vehicle: distilled water + Tween-80): 106 % of control and 100 % of control | T/C (dose: 25.0 mg/kg/injection, schedule: Q01DX009 (ip), vehicle: distilled water + Tween-80): 115 % of control and 117 % of control | T/C (dose: 50.0 mg/kg/injection, schedule: Q01DX009 (ip), vehicle: distilled water + Tween-80): 105 % of control and 118 % of control | T/C (dose: 100.0 mg/kg/injection, schedule: Q01DX009 (ip), vehicle: distilled water + Tween-80): 118 % of control and 115 % of control | T/C (dose: 200.0 mg/kg/injection, schedule: Q01DX009 (ip), vehicle: distilled water + Tween-80): 115 % of control

O=C1C(=O)c2ccccc2C(O)=C1CCCc1ccc(C2CCCCCC2)cc1
T/C (dose: 25.0 mg/kg/injection, schedule: Q01DX009 (ip), vehicle: saline with Tween-80): 86 % of control | T/C [1]: 88 % of control | T/C [2]: 89 % of control | T/C [3]: 95 % of control

COc1ccccc1OCC(O)CNc1ccc(Cl)cc1C(=O)c1ccccc1Cl (stereo not given)
T/C [11]: 90 % of control | T/C [12]: 90 % of control | T/C [13]: 88 % of control

CCOC(=O)N1CCN(CCCCCCOc2ccc(C3CCCCC3)cc2)CC1
T/C [1]: 106 % of control | T/C [2]: 118 % of control | T/C [3]: 123 % of control

O=C(CC(c1ccccc1)c1ccccc1)c1ccccc1
T/C [1]: 86 % of control | T/C [2]: 90 % of control | T/C [3]: 88 % of control | T/C (dose: 400.0 mg/kg/injection, schedule: Q01DX009 (ip), vehicle: saline with Tween-80): 89 % of control

CC(C(=O)O)C1(C(=O)O)CCCCCC1 (stereo not given)
T/C [4]: 100 % of control | T/C [5]: 93 % of control | T/C [6]: 109 % of control

Cc1ccc(S(=O)(=O)Nc2nnc(NS(=O)(=O)c3ccc(C)cc3)nn2)cc1
T/C (dose: 12.5 mg/kg/injection, schedule: Q01DX009 (ip), vehicle: other): 96 % of control | T/C (dose: 25.0 mg/kg/injection, schedule: Q01DX009 (ip), vehicle: other): 96 % of control | T/C (dose: 50.0 mg/kg/injection, schedule: Q01DX009 (ip), vehicle: other): 96 % of control | T/C (dose: 100.0 mg/kg/injection, schedule: Q01DX009 (ip), vehicle: other): 91 % of control | T/C (dose: 200.0 mg/kg/injection, schedule: Q01DX009 (ip), vehicle: other): 94 % of control

Oc1ccc(-c2csc(Nc3ccccn3)n2)cc1O
T/C [11]: 98 % of control | T/C [12]: 106 % of control | T/C [13]: 104 % of control
